Laboratory results reported in ChEMBL document CHEMBL1121941, “Two clonidine-like compounds with substituents at the 2-, 3-, and 6-position of the phenyl ring possessing pronounced hypotensive potencies” (J Med Chem, 1982).

Columns and labels:
Felis catus = assay: Hypotensive activity measured as the 20% decrease in mean arterial blood pressure in anesthetized cat; assay type: functional
[1] = Partition coefficient (logP); assay type: physicochemical; details: octanol/water
Rattus norvegicus = assay: Hypotensive activity measured as the 20% decrease in mean arterial blood pressure in anesthetized normotensive rat; assay type: functional

Structure (SMILES)	pC20 (Felis catus)	logP [1]	pC20 (Rattus norvegicus)
Cc1ccc(Cl)c(Cl)c1NC1=NCCN1	7.92	1.06	7.79
Clc1ccc(Cl)c(NC2=NCCN2)c1Cl	9.17	1.71	8.39
Clc1cccc(Cl)c1NC1=NCCN1 [CLONIDINE]	8.72	0.91	7.96
